Test results: patent US10201523B2, “Use of wilforlide A for overcoming chemotherapy resistance” (WESTERN UNIVERSITY OF HEALTH SCIENCES, priority 2013, dated 2019)
Read-outs that look alike come from different tables or passages of the source.

System: DU-145
Assay: SRB cell viability assay, docetaxel IC50 with/without wilforlide A pretreatment
Assay type: cell-based
Settings: for IC50: Homo sapiens

IC50 (72 h, read-out: Drug IC50 no pre-Tx): > 100 nM | IC50 (wilforlide A 2.5 μg/ml pre-Tx, read-out: Drug IC50 after wilforlide A pre-Tx): 42.5 nM
SMILES: CC(=O)O[C@@]12CO[C@@H]1C[C@H](O)[C@@]1(C)C(=O)[C@H](O)C3=C(C)[C@@H](OC(=O)[C@H](O)[C@@H](NC(=O)OC(C)(C)C)c4ccccc4)C[C@@](O)([C@@H](OC(=O)c4ccccc4)[C@H]21)C3(C)C [docetaxel]
CE (chemosensitization effect, wilforlide A 2.5 μg/ml pre-Tx): >2.35
